{
  "source": "PubChem BioAssay AID510",
  "data": [
    {"biological_target": "Dehydrogenase/reductase SDR family member 6 (Homo sapiens) (UniProt Q9BUT1)", "sequence (Q9BUT1 whole entry, looked up)": "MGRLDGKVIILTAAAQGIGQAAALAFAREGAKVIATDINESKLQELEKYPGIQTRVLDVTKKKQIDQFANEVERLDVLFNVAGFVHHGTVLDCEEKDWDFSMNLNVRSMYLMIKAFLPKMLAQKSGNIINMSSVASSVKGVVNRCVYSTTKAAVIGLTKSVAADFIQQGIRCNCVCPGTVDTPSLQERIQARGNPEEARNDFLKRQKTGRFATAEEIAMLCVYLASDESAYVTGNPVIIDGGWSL", "assay": "SDR family member 6 ligand binding, Tm shift – biophysical, DSF, SYPRO orange, purified human protein (AID 510)", "conditions": "Purified DHRS6, DSF thermal shift, at 100 µM, protein 2 µM, buffer 10 mM HEPES, pH 7.5, NaCl 150 mM, stronger effect = higher value", "units": {"Tm shift": "Celsius"}, "values": [
      {"compound": "C=CC1=C(C)/C(=C/c2[nH]c(Cc3[nH]c(/C=C4\\NC(=O)C(C)=C4C=C)c(C)c3CCC(=O)O)c(CCC(=O)O)c2C)NC1=O", "Tm shift": 8.1},
      {"compound": "O=c1oc2cc(O)ccc2c2oc3cc(O)ccc3c12", "Tm shift": 2.2},
      {"compound": "O=C1C2(Cl)C3(Cl)C4(Cl)C(Cl)(Cl)C5(Cl)C3(Cl)C1(Cl)C5(Cl)C24Cl", "note": "(stereo not given)", "Tm shift": 4.7},
      {"compound": "O=C(C1CCN(S(=O)(=O)c2cccnc2)CC1)N1CCN(C(c2ccccc2)c2ccc(Cl)cc2)CC1", "note": "(stereo not given)", "Tm shift": 2.2},
      {"compound": "NC(=O)c1ccc[n+](C2OC(COP(=O)(O)OP(=O)(O)OCC3OC(n4cnc5c(N)ncnc54)C(O)C3O)C(O)C2O)c1", "note": "(stereo not given)", "Tm shift": 2.4}
    ]}
  ]
}
